According to US10632117B2, “GSK3B and uses thereof in the diagnostic and treatment of hypopigmentation disorders” (INSERM (INSTITUT NATIONAL DE LA SANTE ET DE LA RECHERCHE …, priority 2014, dated 2020):

Key:
Assay type in all cases: cell-based, human
[1] = system: depigmented skin from vitiligo patients; assay: Ex vivo culture of lesional vitiligo skin biopsies, RT-qPCR of melanoblast / pre-melanocyte markers; conditions: 14 days, SKL2001 40 μM; for mRNA level of early melanoblast marker Brn2 / mRNA level of early melanoblast marker PAX3: CHIR99021 3 μM, LiCl 20 μM
Procedure: (§1) For vitiligo skin biopsies, after verification of the absence of melanocytes with Wood's lamp, two or three 6 mm biopsies composed of dermis plus epidermis were taken into lesional skin from vitiligo patients (n=9). The biopsies are rapidly put on transwell chamber of 0.4 μm (Becton Dickinson) and kept on semi liquid culture conditions in “Skin long term culture medium” (Biopredic). The skin was maintained at 37° C. in a wet 5% CO2, atmosphere.
(§2) The culture medium supplemented with Forskolin (Sigma Aldrich), LiCl (Sigma Aldrich), CHIR99021 (Calbiochem) or SKL2001 (Calbiochem) was changed […] during 14 days.
(§3) mRNA from melanocytes and keratinocytes was extracted with RNeasy kit (Qiagen). The biopsies are cut and disrupted with tissue ruptor (Qiagen) and the mRNA was extracted with RNeasy kit (Qiagen). cDNA were synthesized from 300 ng to 1 μg of mRNA with the Reverse Transcription System (Promega). Relative quantification of gene expression was measured by real time qPCR with Sybr green reagent (Life technology) on Step one system.
(§4) In order to induce the differentiation of melanocyte stem cells, they pharmacologically activated the WNT pathway in vitiligo skin cultured ex vivo as shown previously. They used two methods to activate the WNT pathway: a WNT agonist (SKL2001) and two GSK3β inhibitors: lithium chloride (LiCl) and a commercial specific inhibitor (CHIR99021). They biopsied 9 vitiligo subjects (6 mm punch) on diverse body locations ([…], 2 on trunk, 2 on leg, 1 on arm and 1 on axilla) and treated the ex vivo culture model during 14 days with a systemic stimulation every other day with the WNT activators.
(§5) They evaluated the activation of WNT pathway by the mRNA level of WNTs (TCF/LEF1 and the melanogenesis pathway by the mRNA level of MITF, DCT, PAX3 and BRn2) within the skin.

WNT pathway = assay: Ex vivo culture of lesional vitiligo skin biopsies with WNT pathway activators, RT-qPCR of WNT family and LEF; conditions: 14 days, stimulation every other day, CHIR99021 3 μM, LiCl 20 μM, SKL2001 40 μM
Procedure: as §1, §2, §3, §4, §5

[2] = system: melanocyte stem cells in depigmented skin from vitiligo patients; assay: Ex vivo depigmented vitiligo skin, immunohistostaining for co-expression of DCT and PAX3; conditions: 14 days, every other day, SKL2001 40 μM, CHIR99021 3 μM, LiCl 20 μM, immunofluorescence
Procedure: Depigmented skin from vitiligo patients [A (control culture medium)] were stimulated in ex vivo culture with WNT agonist SKL2001 (40 μM) (B), GSK3β inhibitor CHIR99021 (3 μM) (C) or GSK3β inhibitor LiCl 20 μM (D) every other day to activate the WNT pathway. After 14 days, the skin response was analyzed by immunohistostaining with pre-melanocytes markers: a DCT staining (green) and PAX3 staining (red).
as §1, §2
Biopsies were fixed with 4% formol, embedded in paraffin, cut with microtome of […] sections and fixed on superfrost plus slides (Thermoscientific). […]

NHM (melanocytes) = assay: Oxidative stress (H2O2) in NHM: qPCR of LEF and WNT family, TCF/LEF luciferase reporter; conditions: 24 hours, 25 to 100 μM H2O2
Procedure: (§6) NHM (A) and NHK (B) and whole skin in ex vivo culture (C) were stimulated 24 hours with 25 to 100 μM of H2O2. After mRNA extraction, a reverse transcription was performed and the relative gene expression of LEF1 was analyzed with qPCR.
(§7) (A) NHM, (B) NHK and (C) whole skin in ex vivo culture were stimulated 24 hours with 25 to 100 μM of H2O2. After mRNA extraction, a reverse transcription was performed and the relative gene expression of WNT family was analyzed with qPCR.
(§8) NHMs and NHKs are obtained from the foreskin of phototype IV children as described previously. Briefly, epidermal cells are obtained by overnight digestion of the skin in a dispase solution (Roche) at 4° C. followed by the digestion of the epidermis in a trypsin/EDTA solution during 20 minutes at 37° C. […]
(§9) mRNA from melanocytes and keratinocytes was extracted with RNeasy kit (Qiagen). […] Relative quantification of gene expression was measured by real time qPCR with Sybr green reagent (Life technology) on Step one system.
(§10) NHK and NHM were co-infected with the lentivirus TCF/LEF Reporter Luciferase and Cignal Lenti Reporter Control Renilla (Qiagen) and the infected cells were selected with Puromycin for 14 days. NHM and NHK selected were stimulated 24 h with SKL2001 and H2O2 and the TCF/LEF activity was measured with Dual Luciferase Reporter Assay System (Promega).

[3] = system: whole skin in ex vivo culture; assay: Oxidative stress (H2O2) in whole skin in ex vivo culture: qPCR of LEF and WNT family; conditions: skin biopsies ex vivo, 24 hours, 25 to 100 μM H2O2
Procedure: as §6, §7
Skin from abdominoplasty surgery was used to the development of the ex vivo skin culture model. The subcutaneous fat was removed and biopsies of 6 mm were done in the skin composed of dermis and epidermis.
as §3

NHK (keratinocytes) = assay: Oxidative stress (H2O2) in NHK: qPCR of LEF and WNT family, TCF/LEF luciferase reporter; conditions: 24 hours, 25 to 100 μM H2O2
Procedure: as §6, §7, §8, §9, §10

Row | expression of LEF (NHM (melanocytes)) | expression of the majority of WNT (NHM (melanocytes)) | expression of LEF (NHK (keratinocytes)) | expression of the majority of WNT (NHK (keratinocytes)) | SMILES | mRNA level of early melanoblast marker Brn2 [1] | mRNA level of early melanoblast marker PAX3 [1] | relative expression of LEF mRNA (WNT pathway) | relative expression of WNT family mRNA (WNT pathway) | co-expression of DCT and PAX3 (differentiation of melanocyte stem cells into pre-melanocytes) [2] | level of MITF mRNA [1] | expression of LEF [3] | expression of most of the WNT family [3]
1 |  |  |  |  | Cc1c[nH]c(-c2cnc(NCCNc3ccc(C#N)cn3)nc2-c2ccc(Cl)cc2Cl)n1 [CHIR99021] | up-regulated | up-regulated | increase | increase | melanoblast in differentiation within the dermis |  |  | 
2 |  |  |  |  | O=C(NCCCn1ccnc1)c1cc(-c2ccco2)on1 [SKL2001] | up-regulated | up-regulated | increase | increase | melanoblast in differentiation within the dermis | increased |  | 
3 | decreased | decreased | decreased | decreased | OO [H2O2] |  |  |  |  |  |  | decrease | decrease
